Residues, ends and D or L forms follow the SMILES beside them.
Biological target: T1, binding of p85 to HGF/SF receptor (Bos taurus, UniProt P23727)
T1 construct: made in house; host or cells: Sf9 insect cells (baculovirus), for both p85 and the receptor
Experiment: Competition of phosphopeptides with p85 for association with immobilized recombinant HGF/SF receptor (in vitro kinase assay readout)
Parameters: species or system human
In short: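 Sf9 lysates expressing p85 were pre-incubated 1 h at 4°C with phosphopeptides (10 μM; also 10 nM, 100 nM, 1 μM), then bound to immunoprecipitated baculovirus-expressed receptor pre-phosphorylated with 10 μM cold ATP. Bound p85 was detected by in vitro kinase labelling with [γ-32P]ATP, 15 min at 25°C, and SDS-PAGE.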

T1 sequence (P23727 whole entry): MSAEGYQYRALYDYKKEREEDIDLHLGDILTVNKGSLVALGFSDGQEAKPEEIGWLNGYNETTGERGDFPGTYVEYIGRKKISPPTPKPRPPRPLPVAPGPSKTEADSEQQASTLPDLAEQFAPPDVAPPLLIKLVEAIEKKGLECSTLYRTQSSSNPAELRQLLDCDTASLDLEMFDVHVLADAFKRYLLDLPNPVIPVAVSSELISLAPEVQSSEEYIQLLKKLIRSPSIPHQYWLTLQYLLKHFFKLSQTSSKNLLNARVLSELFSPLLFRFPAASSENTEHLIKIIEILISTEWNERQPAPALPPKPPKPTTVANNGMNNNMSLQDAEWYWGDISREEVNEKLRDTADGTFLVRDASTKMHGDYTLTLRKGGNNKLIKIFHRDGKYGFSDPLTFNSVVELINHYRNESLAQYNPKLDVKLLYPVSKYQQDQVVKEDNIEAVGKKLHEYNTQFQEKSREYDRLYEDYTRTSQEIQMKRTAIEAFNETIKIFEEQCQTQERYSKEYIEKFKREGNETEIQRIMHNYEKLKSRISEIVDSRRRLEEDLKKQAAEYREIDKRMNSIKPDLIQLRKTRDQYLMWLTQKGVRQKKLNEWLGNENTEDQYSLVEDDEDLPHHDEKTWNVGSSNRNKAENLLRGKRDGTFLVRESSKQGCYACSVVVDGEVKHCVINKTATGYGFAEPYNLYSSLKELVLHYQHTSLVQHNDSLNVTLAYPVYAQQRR

Compound: CSCC[C@H](NC(=O)[C@@H](NC(=O)[C@H](CCC(=O)O)NC(=O)[C@@H](N)Cc1ccc(OP(=O)(O)O)cc1)C(C)C)C(=O)N[C@@H](CC(C)C)C(=O)N[C@@H](CCCCN)C(=O)N[C@@H](CS)C(=O)N[C@@H](Cc1c[nH]c2ccccc12)C(=O)O [H-Tyr*-Glu-Val-Met-Leu-Lys-Cys-Trp-OH] (HELM PEPTIDE1{[N[C@@H](Cc1ccc(OP(=O)(O)O)cc1)C(=O)[*:2]].E.V.M.L.K.C.W}$$$$V2.0)
- Inhibition of binding of p85 to HGF/SF receptor (phosphopeptide 10 μM, p85 from Sf9 lysates, FIG. 1): efficiently outcompeted p85
- Efficiency at outcompeting p85 (relative affinity for p85) (phosphopeptides at 10 nM, 100 nM, 1 μM, FIG. 2, rank order SEQ. ID NO: 19, then 22, 20, 18): highest

From patent US5912183A, “Peptide inhibitors of mitogenesis and motogenesis” (Pharmacia & Upjohn S.p.A., priority 1993, dated 1999)
